# Assay results taken from patent publication US10173991B2, “Sulfone amide linked benzothiazole inhibitors of endothelial lipase” (BRISTOL-MYERS SQUIBB COMPANY, priority 2014, dated 2019).
# Target: Endothelial lipase (EL) (Homo sapiens (Human), UniProt Q9Y5X9)
# Assay: Endothelial lipase (EL) enzymatic assay with fluorescent substrate A10070 in DMPG vesicles
# Type: biochemical
# Settings: not given
# In short: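 Vesicles prepared: A10070 dried with DMPG, resuspended in HEPES pH 8.0/NaCl/EDTA, sonicated on ice. Enzyme incubated with compound 30 min at 37° C. Reaction started with 1:10 diluted vesicles. Fluorescence (490/530 nm) followed 60 min; slope from 300–900 secs gives rate.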
# Chain of Endothelial lipase (EL) (Q9Y5X9 21-500): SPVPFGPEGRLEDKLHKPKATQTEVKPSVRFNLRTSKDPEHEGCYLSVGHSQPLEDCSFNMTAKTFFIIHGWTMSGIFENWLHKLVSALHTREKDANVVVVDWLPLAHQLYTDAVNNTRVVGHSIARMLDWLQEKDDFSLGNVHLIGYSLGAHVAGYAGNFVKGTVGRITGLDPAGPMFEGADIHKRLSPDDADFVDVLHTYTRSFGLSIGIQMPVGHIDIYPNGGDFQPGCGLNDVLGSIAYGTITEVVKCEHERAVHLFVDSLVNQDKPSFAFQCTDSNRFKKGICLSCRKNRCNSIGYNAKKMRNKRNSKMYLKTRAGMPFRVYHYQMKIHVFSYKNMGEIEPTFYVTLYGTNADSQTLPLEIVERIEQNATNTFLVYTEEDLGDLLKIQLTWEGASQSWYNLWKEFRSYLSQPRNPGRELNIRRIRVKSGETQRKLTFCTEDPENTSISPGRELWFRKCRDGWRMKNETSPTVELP
row,Compound,IC50 [nM]
1,"propan-2-yl N-{4- [2-({[(cyclopropyl- carbamoyl)methyl] carbamoyl}(2- methoxyethane- sulfonyl)methyl)- 5-fluoro-1,3- benzothiazol- 6-yl]phenyl} carbamate [Example 540]",2
2,"COCCS(=O)(=O)C(C(=O)NCC(=O)NC1CC1)c1nc2cc(-c3ccc(F)nc3F)ccc2s1 (stereo not drawn) [Example 68, N-[(cyclopropyl-carbamoyl)methyl]-2-[5-(2,6-difluoropyridin-3-yl)-1,3-benzothiazol-2-yl]-2-(2-methoxyethane-sulfonyl) acetamide]",19
3,"COCCS(=O)(=O)C(C(=O)NCC(=O)NC1CC1)c1nc2ccc(-c3ccc(F)cc3)cc2s1 (stereo not drawn) [Example 307, N-[(cyclopropyl-carbamoyl)methyl]-2-[6-(4-fluorophenyl)-1,3-benzothiazol-2-yl]-2-(2-methoxyethane-sulfonyl)acetamide]",15
4,"Cc1ncc(-c2ccc3nc(C(C(=O)NCC(=O)NC4CC4)S(=O)(=O)Cc4cccc(C#N)c4)sc3c2)cn1 (stereo not drawn) [Example 21, 2-[(3-cyanophenyl)methanesulfonyl]-N-[(cyclopropyl-carbamoyl)methyl]-2-[6-(2-methylpyrimidin-5-yl)-1,3-benzothiazol-2-yl]acetamide]",145
5,"COCCS(=O)(=O)C(C(=O)NCC(=O)NC1CC1)c1nc2cc(-c3ccncc3)ccc2s1 (stereo not drawn) [Example 79, N-[(cyclopropyl-carbamoyl)methyl]-2-(2-methoxyethane-sulfonyl)-2-[5-(pyridin-4-yl)-1,3-benzothiazol-2-yl]acetamide]",40
6,"COCCS(=O)(=O)C(C(=O)NCC(=O)NC1CC1)c1nc2cc(-c3ccc(F)nc3C)ccc2s1 (stereo not drawn) [Example 88, N-[(cyclopropyl-carbamoyl)methyl]-2-[5-(6-fluoro-2-methylpyridin-3-yl)-1,3-benzothiazol-2-yl]-2-(2-methoxyethane-sulfonyl) acetamide]",82
7,"COCCS(=O)(=O)C(C(=O)NCC(=O)NC1CC1)c1nc2cc(F)c(-c3ccc4c(cnn4C)c3)cc2s1 (stereo not drawn) [Example 152, N-[(cyclopropyl-carbamoyl)methyl]-2-[5-fluoro-6-(1-methyl-1H-indazol-5-yl)-1,3-methoxyethane-sulfonyl) acetamide]",3
8,"COCCS(=O)(=O)C(C(=O)NCC(=O)NC1CC1)c1nc2cc(F)c(-c3ccc(NC(=O)OC)cc3C)cc2s1 (stereo not drawn) [Example 35, methyl N-{4-[2-({[(cyclopropyl-carbamoyl)methyl]carbamoyl}(2-methoxyethane-sulfonyl)methyl)-5-fluoro-1,3-benzothiazol-6-yl]-3-methylphenyl} carbamate]",8
9,"COCCS(=O)(=O)C(C(=O)NCC(=O)NC1CC1)c1nc2cc(-c3cccnc3C)ccc2s1 (stereo not drawn) [Example 91, N-[(cyclopropyl-carbamoyl)methyl]-2-(2-methoxyethane-sulfonyl)-2-[5-(2-methylpyridin-3-yl)-1,3-benzothiazol-2-yl]acetamide]",18
10,"COCCS(=O)(=O)C(C(=O)NCC(=O)NC1CC1)c1nc2cc(C(F)(F)F)c(-c3cccc(C(=O)N(C)C)c3)cc2s1 (stereo not drawn) [Example 157, 3-[2-({[(cyclopropyl-carbamoyl)methyl]carbamoyl}(2-methoxyethane-sulfonyl)methyl)-5-(trifluoromethyl)-1,3-benzothiazol-6-yl]-N,N-dimethylbenzamide]",11
11,"CS(=O)(=O)C(C(=O)NCC(=O)NC1CC1)c1nc2cc(F)c(-c3ccc(N4CCCCC4=O)cc3)cc2s1 (stereo not drawn) [Example 201, N-[(cyclopropyl-carbamoyl)methyl]-2-{5-fluoro-6-[4-(2-oxopiperidin-1-yl)phenyl]-1,3-benzothiazol-2-yl}-2-methanesulfonyl-acetamide]",10
12,"COCCS(=O)(=O)C(C(=O)NCC(=O)NCCOC(C)C)c1nc2cc(-c3cnnc(C)c3)c(F)cc2s1 (stereo not drawn) [Example 358, 2-[6-fluoro-5-(6-methylpyridazin-4-yl)-1,3-benzothiazol-2-yl]-2-(2-methoxyethane-sulfonyl)-N-({[2-(propan-2-yloxy)ethyl]carbamoyl}methyl)acetamide]",60
13,"COCCS(=O)(=O)C(C(=O)NCC(=O)NC1CC1)c1nc2c(F)cc(-c3ccc(=O)n(C(C)C)c3)cc2s1 (stereo not drawn) [Example 225, N-[(cyclopropyl-carbamoyl)methyl]-2-{4-fluoro-6-[6-oxo-1-(propan-2-yl)-1,6-dihydropyridin-3-yl]-1,3-benzothiazol-2-yl}-2-(2-methoxyethane-sulfonyl) acetamide]",88

# Results, then the compound that gave them:
row,IC50 [nM],Compound
1,173,"O=C(CNC(=O)C(c1nc2ccc(-c3cccnc3F)cc2s1)S(=O)(=O)N1CCOCC1)NC1CC1 (stereo not drawn) [Example 482, N-[(cyclopropyl-carbamoyl)methyl]-2-[6-(2-fluoropyridin-3-yl)-1,3-benzothiazol-2-yl]-2-(morpholine-4-sulfonyl)acetamide]"
2,92,"COCCS(=O)(=O)C(C(=O)NCC(=O)NC1CC1)c1nc2cc(F)c(-c3ccccc3NC(=O)OC)cc2s1 (stereo not drawn) [Example 537, methyl N-{2-[2-({[(cyclopropyl-carbamoyl)methyl]carbamoyl}(2-methoxyethane-sulfonyl)methyl)-5-fluoro-1,3-benzothiazol-6-yl]phenyl} carbamate]"
3,14,"Cc1ccn(-c2cccc(-c3ccc4nc(C(C(=O)NCC(=O)NC5CC5)S(C)(=O)=O)sc4c3)n2)n1 (stereo not drawn) [Example 412, N-[(cyclopropyl-carbamoyl)methyl]-2-methanesulfonyl-2-{6-[6-(3-methyl-1H-pyrazol-1-yl)pyridin-2-yl]-1,3-benzothiazol-2-yl}acetamide]"
4,1,"COCCS(=O)(=O)C(C(=O)NCC(=O)NC1CC1)c1nc2cc(F)c(-c3ccc(-n4ncc(C#N)c4N)cc3)cc2s1 (stereo not drawn) [Example 585, 2-{6-[4-(5-amino-4-cyano-1H-pyrazol-1-yl)phenyl]-5-fluoro-1,3-benzothiazol-2-yl}-N-[(cyclopropyl-carbamoyl)methyl]-2-(2-methoxyethane-sulfonyl)acetamide]"
5,2,"CS(=O)(=O)C(C(=O)NCC(=O)NC1CC1)c1nc2cc(F)c(-c3ccccc3)cc2s1 (stereo not drawn) [Example 609, N-[(cyclopropyl-carbamoyl)methyl]-2-(5-fluoro-6-phenyl-1,3-benzothiazol-2-yl)-2-methanesulfonyl-acetamide]"
6,19,"COCCNC(=O)c1ccc(-c2ccc3nc(C(C(=O)NCC(=O)NC4CC4)S(=O)(=O)c4ccc(F)cc4)sc3c2)cc1 (stereo not drawn) [Example 450, 4-[2-({[(cyclopropyl-carbamoyl)methyl]carbamoyl}(4-fluorobenzene-sulfonyl)methyl)-1,3-benzothiazol-6-yl]-N-(2-methoxyethyl) benzamide]"

# Same assay, conditions: EL from conditioned media of HT-1080 cells; 30 min preincubation at 37° C.
row,IC50 [nM],Compound
1,2.1,"COCCS(=O)(=O)C(C(=O)NCC(=O)NC1CC1)c1nc2cc(F)c(-c3ccc(-c4ncon4)cc3)cc2s1 (stereo not drawn) [Example 411, 2-(6-(4-(1,2,4-Oxadiazol-3-yl)phenyl)-5-fluorobenzo[d]thiazol-2-yl)-N-(2-(cyclopropylamino)-2-oxoethyl)-2-((2-methoxyethyl)sulfonyl)acetamide]"
2,0.9,"O=C(CCc1ccccc1)Nc1ccc(-c2cc3sc(C(C(=O)NCC(=O)NC4CC4)S(=O)(=O)CCC(F)(F)F)nc3cc2F)cc1 (stereo not drawn) [Example 575, N-{4-[2-({[(Cyclopropylcarbamoyl)methyl]carbamoyl}(3,3,3-trifluoropropanesulfonyl)methyl)-5-fluoro-1,3-benzothiazol-6-yl]phenyl}-3-phenylpropanamide]"
